This test addresses T1, ROMK (Kir1.1) channel (Homo sapiens, UniProt P48048).
T1 sequence (P48048 1-391): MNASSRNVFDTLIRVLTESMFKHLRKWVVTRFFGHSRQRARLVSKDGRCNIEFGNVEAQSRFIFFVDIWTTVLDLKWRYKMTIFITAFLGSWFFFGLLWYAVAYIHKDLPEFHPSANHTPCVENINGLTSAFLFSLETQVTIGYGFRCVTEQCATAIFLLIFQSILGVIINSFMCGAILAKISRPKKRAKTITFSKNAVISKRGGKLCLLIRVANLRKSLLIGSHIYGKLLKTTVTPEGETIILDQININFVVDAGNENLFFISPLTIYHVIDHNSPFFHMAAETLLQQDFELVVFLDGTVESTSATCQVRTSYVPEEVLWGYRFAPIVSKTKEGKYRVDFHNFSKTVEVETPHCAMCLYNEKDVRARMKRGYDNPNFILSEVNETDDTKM
The test is described as follows: Thallium Flux Assay. In kind it is cell-based. The method, boiled down:
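Thallium flux assay as described in WO 2013/062900. Compounds supplied as HCl salts were tested in salt form.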

`O=C1C=C(N2CCC3(CCN(C(=O)Cc4cnc(-n5cnnn5)cn4)CC3)CC2)CO1` [Example 106, 4-(9-{[5-(1H-tetrazol-1-yl)pyrazin-2-yl]acetyl}-3,9-diazaspiro[5.5]undec-3-yl)furan-2(5H)-one] returned an IC50 of 379 nM.

Usually IC50 stands for the midpoint of a concentration-inhibition curve.

The record behind these values is patent publication US9839629B2, “Inhibitors of the renal outer medullary potassium channel” (Merck Sharp & Dohme Corp., priority 2013, dated 2017).
